Source: patent publication US20080213250A1, “Use of Eph Receptor Inhibitors for the Treatment of Neurodegenerative Diseases” (priority 2004, published 2008)

Columns and labels:
EphB1 = target: T1, EphB1 (Mus musculus, UniProt Q8CBF3); assay: Chemical proteomics pull-down with immobilized compound, LC-MS/MS identification; details: maximum in any chemical proteomics experiment
T1 sequence (Q8CBF3 18-984): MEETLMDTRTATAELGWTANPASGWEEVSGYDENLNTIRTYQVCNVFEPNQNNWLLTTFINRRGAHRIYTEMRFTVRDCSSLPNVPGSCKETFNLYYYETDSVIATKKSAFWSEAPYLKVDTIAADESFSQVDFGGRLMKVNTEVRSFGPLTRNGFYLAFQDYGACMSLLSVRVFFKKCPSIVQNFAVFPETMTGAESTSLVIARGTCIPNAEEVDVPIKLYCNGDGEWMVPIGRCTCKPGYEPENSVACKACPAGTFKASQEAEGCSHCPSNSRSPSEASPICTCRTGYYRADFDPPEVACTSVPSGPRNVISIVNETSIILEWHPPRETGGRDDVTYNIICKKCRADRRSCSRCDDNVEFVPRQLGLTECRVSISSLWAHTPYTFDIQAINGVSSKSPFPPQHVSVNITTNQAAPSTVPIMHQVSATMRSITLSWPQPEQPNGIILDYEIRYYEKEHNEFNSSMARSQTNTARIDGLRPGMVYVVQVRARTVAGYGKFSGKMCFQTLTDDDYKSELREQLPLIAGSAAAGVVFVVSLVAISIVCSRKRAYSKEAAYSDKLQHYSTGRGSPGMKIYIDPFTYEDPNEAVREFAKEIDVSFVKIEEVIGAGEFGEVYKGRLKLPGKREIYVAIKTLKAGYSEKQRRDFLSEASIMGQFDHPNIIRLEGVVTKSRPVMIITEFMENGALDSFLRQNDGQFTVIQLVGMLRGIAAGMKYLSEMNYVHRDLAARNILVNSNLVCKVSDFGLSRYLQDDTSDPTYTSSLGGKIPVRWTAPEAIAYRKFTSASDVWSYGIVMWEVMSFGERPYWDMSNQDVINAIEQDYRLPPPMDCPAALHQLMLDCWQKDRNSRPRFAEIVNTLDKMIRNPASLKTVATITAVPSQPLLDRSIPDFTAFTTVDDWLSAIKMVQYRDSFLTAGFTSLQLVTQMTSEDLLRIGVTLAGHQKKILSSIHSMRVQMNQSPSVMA

TAP-tagged Eph kinases = assay: Autophosphorylation of TAP-tagged Eph kinases in cells; type: cell-based; details: in cells (FIG. 2)
Protocol: Cells are plated in 6-well plates in growth medium (see above). To test potential modulators, preferably inhibitors, of Eph kinase tyrosine phosphorylation, cells are starved in serum-free medium for 4 h. Under these conditions, Eph-TAP kinase is partially constitutively phosphorylated-presumably through autophosphorylation that is commonly associated with over-expression of receptor tyrosine kinases. This feature is exploited to monitor the effect of Eph kinase modulators. Test compounds are diluted (from a stock in DMSO) in serum-free medium and added to cells for indicated times. Cells are chilled on ice and washed with ice-cold PBS. They are then lysed in 300 μl lysis buffer (50 mM Tris-HCl, 1% NP-40, 0.05% SDS, 100 mM NaCl, 1.5 mM MgCl2, 2 mM EDTA, 5% glycerol, pH 7.6) for 20 min at 4 °C and cleared by centrifugation at 16,100×g in a table-top centrifuge for 20 min.
Lysates are subsequently incubated with 20 μl pre-washed rabbit IgG beads (Sigma) for 2 h with constant agitation at 4° C. Beads are finally washed with 1 ml of lysis buffer and immobilized protein complexes are eluted by boiling in 40 μl SDS sample buffer.
Blot membranes are probed with monoclonal antibody 4G10 (Upstate Biotechnology) or with HRP-coupled PAP antibody (see above).

EphA3 = target: T2, EphA3 (Mus musculus, UniProt P29319); assay: Chemical proteomics pull-down with immobilized compound, LC-MS/MS identification; details: maximum in any chemical proteomics experiment
T2 sequence (P29319 21-983): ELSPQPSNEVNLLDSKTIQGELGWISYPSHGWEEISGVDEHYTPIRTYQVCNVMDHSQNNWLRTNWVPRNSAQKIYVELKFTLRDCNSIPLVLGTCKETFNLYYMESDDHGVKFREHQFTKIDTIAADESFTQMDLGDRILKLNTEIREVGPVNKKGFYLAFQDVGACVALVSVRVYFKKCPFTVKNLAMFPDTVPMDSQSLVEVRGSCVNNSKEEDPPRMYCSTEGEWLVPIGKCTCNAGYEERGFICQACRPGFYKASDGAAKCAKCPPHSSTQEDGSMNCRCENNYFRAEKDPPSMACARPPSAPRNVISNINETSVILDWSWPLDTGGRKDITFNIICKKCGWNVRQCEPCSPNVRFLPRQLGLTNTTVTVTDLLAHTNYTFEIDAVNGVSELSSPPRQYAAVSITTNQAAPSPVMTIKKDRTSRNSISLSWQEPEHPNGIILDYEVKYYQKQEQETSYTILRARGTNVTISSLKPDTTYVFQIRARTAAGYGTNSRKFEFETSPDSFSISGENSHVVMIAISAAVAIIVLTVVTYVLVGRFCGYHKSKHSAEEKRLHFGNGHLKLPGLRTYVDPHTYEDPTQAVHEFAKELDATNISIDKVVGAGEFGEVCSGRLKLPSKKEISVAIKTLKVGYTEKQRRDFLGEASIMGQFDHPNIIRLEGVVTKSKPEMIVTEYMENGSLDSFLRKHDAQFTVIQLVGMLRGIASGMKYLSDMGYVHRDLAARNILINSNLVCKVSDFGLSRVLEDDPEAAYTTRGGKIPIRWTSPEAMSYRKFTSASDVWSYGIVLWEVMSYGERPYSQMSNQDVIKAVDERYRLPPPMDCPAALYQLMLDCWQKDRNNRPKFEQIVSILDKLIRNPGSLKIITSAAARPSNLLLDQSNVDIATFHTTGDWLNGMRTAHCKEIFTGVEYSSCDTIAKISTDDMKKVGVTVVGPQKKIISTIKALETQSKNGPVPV

| maximal number of non-redundant peptides identified, EphB1 (EphB1) | maximal number of non-redundant peptides identified, EphA3 (EphA3) | Compound | inhibition of autophosphorylation of TAP-tagged Eph kinases in cells (TAP-tagged Eph kinases) |
| --- | --- | --- | --- |
| 5 | – | CSc1cccc(Nc2ncc3cc(-c4c(Cl)cccc4Cl)c(=O)n(C)c3n2)c1 [PD173955] | potent inhibitors |
| – | 1 | CC(C)[C@H](CO)Nc1nc(Nc2ccc(C(=O)O)c(Cl)c2)c2ncn(C(C)C)c2n1 [Purvalanol B] | – |
